Results taken from ChEMBL document CHEMBL4118135, “Optimized allosteric inhibition of engineered protein tyrosine phosphatases with an expanded palette of biarsenical small molecules” (Bioorg Med Chem, 2018).
Where a chain is given by its changes, count along the chain named. The source made the active and inactive calls. The rule behind the calls is not given here.

Assays:
Homo sapiens = species on record: Homo sapiens; assay: Inhibition of His6-tagged human wild-type PTP catalytic domain at 500 nM using pNPP as substrate incubated for 90 mins by quenched phosphatase activity assay
[1] = molecular target: T1, Tyrosine-protein phosphatase non-receptor type 11 (Homo sapiens) (UniProt Q06124); assay: Inhibition of allosterically sensitized mutant form of His6-tagged human SHP2 catalytic domain at 500 nM at 500 nM using pNPP as substrate incubated for 90 mins by quenched phosphatase activity assay
T1 sequence (whole entry): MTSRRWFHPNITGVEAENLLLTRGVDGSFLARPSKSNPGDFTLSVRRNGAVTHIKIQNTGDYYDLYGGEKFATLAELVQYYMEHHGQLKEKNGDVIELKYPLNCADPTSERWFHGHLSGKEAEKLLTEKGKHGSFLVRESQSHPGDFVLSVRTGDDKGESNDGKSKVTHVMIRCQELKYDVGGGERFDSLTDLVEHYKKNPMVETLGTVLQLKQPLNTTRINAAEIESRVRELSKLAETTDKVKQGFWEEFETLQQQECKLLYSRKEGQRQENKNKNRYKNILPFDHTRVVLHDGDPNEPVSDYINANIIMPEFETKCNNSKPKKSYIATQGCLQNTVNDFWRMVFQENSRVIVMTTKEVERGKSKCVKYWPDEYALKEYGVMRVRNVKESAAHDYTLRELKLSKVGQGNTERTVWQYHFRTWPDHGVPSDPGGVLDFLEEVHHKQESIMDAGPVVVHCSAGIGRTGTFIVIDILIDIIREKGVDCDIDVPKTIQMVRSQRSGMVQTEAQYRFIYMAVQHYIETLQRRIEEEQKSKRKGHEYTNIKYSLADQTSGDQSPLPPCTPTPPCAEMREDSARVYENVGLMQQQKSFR

[2] = molecular target: Tyrosine-protein phosphatase non-receptor type 6 (Homo sapiens) (UniProt P29350); assay: Inhibition of allosterically sensitized mutant form of His6-tagged human SHP1 catalytic domain at 500 nM using pNPP as substrate incubated for 90 mins by quenched phosphatase activity assay
Tyrosine-protein phosphatase non-receptor type 6 (Homo sapiens), sequence (P29350 whole entry, the tested form may be a part): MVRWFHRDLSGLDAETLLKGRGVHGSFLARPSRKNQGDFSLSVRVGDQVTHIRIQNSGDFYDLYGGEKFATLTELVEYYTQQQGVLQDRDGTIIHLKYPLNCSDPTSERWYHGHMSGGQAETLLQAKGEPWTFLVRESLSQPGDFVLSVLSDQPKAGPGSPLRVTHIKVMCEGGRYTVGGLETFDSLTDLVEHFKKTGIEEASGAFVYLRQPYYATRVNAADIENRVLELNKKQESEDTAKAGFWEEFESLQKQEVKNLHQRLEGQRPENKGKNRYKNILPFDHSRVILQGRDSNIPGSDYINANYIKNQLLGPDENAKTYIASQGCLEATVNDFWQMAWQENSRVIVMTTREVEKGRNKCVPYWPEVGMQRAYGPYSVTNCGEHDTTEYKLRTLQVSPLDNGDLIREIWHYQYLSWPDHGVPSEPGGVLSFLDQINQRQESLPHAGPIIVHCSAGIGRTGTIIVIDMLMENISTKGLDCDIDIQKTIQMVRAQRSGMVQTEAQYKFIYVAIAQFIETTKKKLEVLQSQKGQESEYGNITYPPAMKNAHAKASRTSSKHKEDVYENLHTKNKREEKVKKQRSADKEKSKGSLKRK

[3] = test system: T2, Tyrosine-protein phosphatase non-receptor type 1 (Homo sapiens), P18031 [P87C,A122C]; assay: Inhibition of allosterically sensitized His6-tagged human PTP1B catalytic domain P87C/A122C mutant at 250 nM using pNPP as substrate incubated for 90 mins by quenched phosphatase activity assay
T2 sequence (whole entry): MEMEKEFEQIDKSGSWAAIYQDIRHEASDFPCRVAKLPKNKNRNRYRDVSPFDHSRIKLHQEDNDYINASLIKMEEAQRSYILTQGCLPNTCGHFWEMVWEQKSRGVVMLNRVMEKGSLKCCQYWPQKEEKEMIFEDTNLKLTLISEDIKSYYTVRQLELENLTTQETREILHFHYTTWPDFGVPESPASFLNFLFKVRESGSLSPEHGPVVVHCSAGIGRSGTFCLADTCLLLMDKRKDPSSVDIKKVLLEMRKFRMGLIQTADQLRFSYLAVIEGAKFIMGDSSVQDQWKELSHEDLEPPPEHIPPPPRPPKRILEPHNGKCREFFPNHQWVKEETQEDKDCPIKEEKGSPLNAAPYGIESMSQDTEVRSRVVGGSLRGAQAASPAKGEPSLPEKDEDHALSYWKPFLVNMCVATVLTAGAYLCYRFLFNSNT

[4] = test system: T3, Tyrosine-protein phosphatase non-receptor type 7 (Homo sapiens), P35236 [P171C,V205C]; assay: Inhibition of allosterically sensitized mutant form of His6-tagged human HePTP catalytic domain at 500 nM using pNPP as substrate incubated for 90 mins by quenched phosphatase activity assay
T3 sequence (whole entry): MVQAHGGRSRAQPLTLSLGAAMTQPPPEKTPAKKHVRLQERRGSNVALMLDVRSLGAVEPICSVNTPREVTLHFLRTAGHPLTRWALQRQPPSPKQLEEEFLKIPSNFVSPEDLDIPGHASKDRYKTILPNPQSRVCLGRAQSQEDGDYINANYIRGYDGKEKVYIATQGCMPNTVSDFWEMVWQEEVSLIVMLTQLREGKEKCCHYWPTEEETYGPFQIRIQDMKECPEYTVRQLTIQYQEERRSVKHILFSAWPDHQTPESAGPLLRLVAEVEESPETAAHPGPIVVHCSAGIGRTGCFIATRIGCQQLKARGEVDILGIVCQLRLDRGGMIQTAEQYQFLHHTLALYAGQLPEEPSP

[5] = test system: T3, Tyrosine-protein phosphatase non-receptor type 7 (Homo sapiens), P35236 [P171C,V205C]; assay: Inhibition of allosterically sensitized mutant form of His6-tagged human HePTP at 1000 nM using pNPP as substrate measured at 5 mins by quenched phosphatase activity assay
[6] = molecular target: T1, Tyrosine-protein phosphatase non-receptor type 11 (Homo sapiens); assay: Inhibition of allosterically sensitized mutant form of His6-tagged human SHP2 containing SHP1 and […] SH2 domain at 500 nM at 500 nM using pNPP as substrate incubated for 90 mins by quenched phosphatase activity assay
[7] = molecular target: Tyrosine-protein phosphatase non-receptor type 13 (Homo sapiens) (UniProt Q12923); assay: Inhibition of allosterically sensitized mutant form of His6-tagged human FAP1 catalytic domain at 500 nM using pNPP as substrate incubated for 90 mins by quenched phosphatase activity assay
Tyrosine-protein phosphatase non-receptor type 13 (Homo sapiens), sequence (Q12923 whole entry, the tested form may be a part): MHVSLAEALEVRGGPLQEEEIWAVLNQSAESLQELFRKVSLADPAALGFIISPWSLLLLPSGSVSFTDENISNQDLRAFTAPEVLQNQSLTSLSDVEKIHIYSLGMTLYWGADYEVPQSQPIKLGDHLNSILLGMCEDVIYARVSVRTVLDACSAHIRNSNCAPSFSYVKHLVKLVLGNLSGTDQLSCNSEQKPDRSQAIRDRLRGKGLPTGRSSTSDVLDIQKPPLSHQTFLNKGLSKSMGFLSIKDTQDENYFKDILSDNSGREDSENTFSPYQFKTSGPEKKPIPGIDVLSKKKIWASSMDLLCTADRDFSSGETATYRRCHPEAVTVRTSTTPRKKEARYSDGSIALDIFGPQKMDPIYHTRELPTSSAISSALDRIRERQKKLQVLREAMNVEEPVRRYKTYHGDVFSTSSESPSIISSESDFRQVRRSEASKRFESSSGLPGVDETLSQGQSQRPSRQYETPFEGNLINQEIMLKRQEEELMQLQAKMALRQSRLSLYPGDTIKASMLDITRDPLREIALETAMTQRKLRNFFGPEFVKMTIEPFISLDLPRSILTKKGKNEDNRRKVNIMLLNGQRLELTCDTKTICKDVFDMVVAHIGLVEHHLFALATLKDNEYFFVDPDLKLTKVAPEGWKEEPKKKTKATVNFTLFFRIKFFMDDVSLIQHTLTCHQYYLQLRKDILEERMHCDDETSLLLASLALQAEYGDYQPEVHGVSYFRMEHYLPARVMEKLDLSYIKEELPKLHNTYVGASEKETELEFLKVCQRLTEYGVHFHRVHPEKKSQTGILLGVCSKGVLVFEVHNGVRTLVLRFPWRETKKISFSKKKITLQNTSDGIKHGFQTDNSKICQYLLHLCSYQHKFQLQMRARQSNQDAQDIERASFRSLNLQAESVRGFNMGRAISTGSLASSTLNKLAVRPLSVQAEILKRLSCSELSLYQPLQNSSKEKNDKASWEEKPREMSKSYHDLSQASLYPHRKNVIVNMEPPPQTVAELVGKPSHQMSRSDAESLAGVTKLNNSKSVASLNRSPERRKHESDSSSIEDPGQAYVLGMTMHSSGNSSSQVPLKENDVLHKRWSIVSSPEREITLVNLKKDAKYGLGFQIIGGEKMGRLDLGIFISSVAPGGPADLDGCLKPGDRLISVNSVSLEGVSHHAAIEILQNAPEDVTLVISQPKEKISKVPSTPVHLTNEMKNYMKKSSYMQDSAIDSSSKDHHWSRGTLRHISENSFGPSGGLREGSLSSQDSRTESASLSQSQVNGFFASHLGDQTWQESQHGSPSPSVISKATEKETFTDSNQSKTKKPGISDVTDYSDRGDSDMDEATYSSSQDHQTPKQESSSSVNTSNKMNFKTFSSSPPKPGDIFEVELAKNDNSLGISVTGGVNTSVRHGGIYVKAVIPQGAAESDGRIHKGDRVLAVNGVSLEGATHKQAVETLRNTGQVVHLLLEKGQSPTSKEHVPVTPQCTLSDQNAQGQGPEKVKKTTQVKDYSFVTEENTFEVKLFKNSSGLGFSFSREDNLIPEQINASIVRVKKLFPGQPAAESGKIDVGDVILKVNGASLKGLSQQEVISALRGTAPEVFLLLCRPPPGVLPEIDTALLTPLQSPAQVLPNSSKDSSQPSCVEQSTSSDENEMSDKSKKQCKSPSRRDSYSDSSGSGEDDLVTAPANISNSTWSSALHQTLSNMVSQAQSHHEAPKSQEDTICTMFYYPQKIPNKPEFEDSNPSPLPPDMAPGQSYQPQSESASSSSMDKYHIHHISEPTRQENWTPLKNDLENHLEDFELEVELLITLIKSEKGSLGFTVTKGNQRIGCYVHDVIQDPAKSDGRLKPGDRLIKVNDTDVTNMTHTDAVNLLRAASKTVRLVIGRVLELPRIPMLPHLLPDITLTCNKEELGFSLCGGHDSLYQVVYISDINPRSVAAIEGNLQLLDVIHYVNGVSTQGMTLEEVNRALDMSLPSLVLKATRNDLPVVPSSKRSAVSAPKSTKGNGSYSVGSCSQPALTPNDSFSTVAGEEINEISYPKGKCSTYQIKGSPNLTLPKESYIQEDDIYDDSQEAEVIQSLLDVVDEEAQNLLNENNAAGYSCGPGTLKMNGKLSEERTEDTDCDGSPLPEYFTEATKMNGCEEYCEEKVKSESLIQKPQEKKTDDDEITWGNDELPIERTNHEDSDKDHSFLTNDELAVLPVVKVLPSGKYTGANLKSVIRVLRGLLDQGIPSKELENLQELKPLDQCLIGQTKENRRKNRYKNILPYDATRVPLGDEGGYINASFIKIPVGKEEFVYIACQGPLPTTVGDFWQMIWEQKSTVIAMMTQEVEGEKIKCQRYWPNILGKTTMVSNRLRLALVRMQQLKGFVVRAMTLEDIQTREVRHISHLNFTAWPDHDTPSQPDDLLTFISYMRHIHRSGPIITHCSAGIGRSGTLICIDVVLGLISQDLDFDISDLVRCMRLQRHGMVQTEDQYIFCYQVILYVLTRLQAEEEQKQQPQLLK

[8] = test system: T2, Tyrosine-protein phosphatase non-receptor type 1 (Homo sapiens), P18031 [P87C,A122C]; assay: Binding affinity to allosterically sensitized His6-tagged human PTP1B catalytic domain P87C/A122C mutant overexpressed in Escherichia coli crude cell lysate incubated for 90 mins by SDS-PAGE and LC-MS/MS method
[9] = molecular target: T4, Tyrosine-protein phosphatase non-receptor type 1 (Homo sapiens) (UniProt P18031); assay: Inhibition of His6-tagged human wild-type PTP1B catalytic domain at 500 nM using DADEpYLIPQQG as substrate incubated for 90 mins by continuous phosphatase activity assay
T4 sequence (whole entry): T2 sequence (whole entry) with C87P, C122A

[10] = molecular target: T4, Tyrosine-protein phosphatase non-receptor type 1 (Homo sapiens); assay: Inhibition of His6-tagged human wild-type PTP1B catalytic domain overexpressed in Escherichia coli BL21(DE3) cells at 100 uM using pNPP as substrate incubated for 90 mins by quenched phosphatase activity assay
[11] = test system: T2, Tyrosine-protein phosphatase non-receptor type 1 (Homo sapiens), P18031 [P87C,A122C]; assay: Inhibition of allosterically sensitized His6-tagged human PTP1B catalytic domain P87C/A122C mutant at 2000 nM using pNPP as substrate incubated for =
[12] = test system: T2, Tyrosine-protein phosphatase non-receptor type 1 (Homo sapiens), P18031 [P87C,A122C]; assay: Binding affinity to allosterically sensitized His6-tagged human PTP1B catalytic domain P87C/A122C mutant overexpressed in Escherichia coli BL21(DE3) cells at 25 to 100 uM after 90 mins by SDS-PAGE and LC-MS/MS method

O=C(O)c1ccccc1-c1c2ccc(=O)c([As]3SCCS3)c-2oc2c([As]3SCCS3)c(O)ccc12
inhibition (Homo sapiens): Active | inhibition [1]: Active | inhibition [2]: Active | inhibition [3]: Active | inhibition [4]: Active | inhibition [5]: 70% | inhibition [6]: Active | inhibition [7]: Active

CC1(C)C(/C=C/C=C2/N(CCCCS(=O)(=O)O)c3ccc([As]4SCCS4)cc3C2(C)C)=[N+](CCCCS(=O)(=O)O)c2ccc([As]3SCCS3)cc21
Activity [8]: Dose-dependent effect | inhibition (Homo sapiens): Active | inhibition [9]: inactive | inhibition [1]: inactive | inhibition [2]: Active | inhibition [10]: inactive | inhibition [3]: 70% | inhibition [4]: inactive | inhibition [6]: inactive | inhibition [11]: 50% | Activity [12]: Active | inhibition [7]: Active
